Experimental data reported in patent publication US12077503B2, “Substituted cyclic amides and their use as herbicides” (FMC CORPORATION, priority 2015, dated 2024).

How the values were obtained:
Format in all cases: in vivo
[1] = test system: barnyardgrass (Echinochloa crus-galli); test: Test G Pre-Emergence Protocol; conditions: Echinochloa crus-galli, pre-emergence, 312 h, evaluated after 13 days; for pest or weed control at 15.625 g/ha: 15.625 g ai/ha, read-out: Barnyard grass damage rating (100=total damage to plant; 0=no damage to plant); for pest or weed control at 62.5 g/ha: 62.5 g ai/ha, 100=total damage to plant, 0=no damage to plant, read-out: plant damage rating, Barnyardgrass; for pest or weed control at 250 g/ha: 250 g ai/ha, read-out: Barnyardgrass damage rating (100=total damage to plant; 0=no damage to plant)
Method in brief: (§1)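 Herbicidal effect was rated 13 days post-application on a scale where 100 equals total damage. Spraying took place the day after sowing, using 15.625, 62.5 or 250 g/ha of compound in a 50:50 acetone/water solution with 0.5% Tween 20.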

corn (Zea mays) [2] = test: Test G Pre-Emergence Protocol; conditions: Zea mays, pre-emergence, 312 h, evaluated after 13 days; for plant injury at 15.625 g/ha: 15.625 g ai/ha; for plant injury at 15.625 g/ha / plant injury at 250 g/ha: read-out: Corn damage rating (100=total damage to plant; 0=no damage to plant); for plant injury at 62.5 g/ha: 62.5 g ai/ha, 100=total damage to plant, 0=no damage to plant, read-out: plant damage rating, Corn; for plant injury at 250 g/ha: 250 g ai/ha
Method in brief: as §1

[3] = test system: giant foxtail (Setaria faberi); test: Test G Pre-Emergence Protocol; conditions: Setaria faberi, pre-emergence, 312 h, evaluated after 13 days; for pest or weed control at 15.625 g/ha: 15.625 g ai/ha; for pest or weed control at 15.625 g/ha / pest or weed control at 250 g/ha: read-out: Foxtail, Giant damage rating (100=total damage to plant; 0=no damage to plant); for pest or weed control at 62.5 g/ha: 62.5 g ai/ha, 100=total damage to plant, 0=no damage to plant, read-out: plant damage rating, Foxtail, Giant; for pest or weed control at 250 g/ha: 250 g ai/ha
Method in brief: as §1

[4] = test system: ivy-leaved morning glory (Ipomoea hederacea); test: Test G Pre-Emergence Protocol; conditions: Ipomoea, pre-emergence, 312 h, evaluated after 13 days; for pest or weed control at 15.625 g/ha: 15.625 g ai/ha, read-out: Morning-glory, Ivy-leaved damage rating (100=total damage to plant; 0=no damage to plant); for pest or weed control at 62.5 g/ha: 62.5 g ai/ha, 100=total damage to plant, 0=no damage to plant, read-out: plant damage rating, Morningglory, Ivy-leaved; for pest or weed control at 250 g/ha: 250 g ai/ha, read-out: Morningglory, Ivy-leaved damage rating (100=total damage to plant; 0=no damage to plant)
Method in brief: as §1

[5] = test system: redroot pigweed (Amaranthus retroflexus); test: Test G Pre-Emergence Protocol; conditions: Amaranthus retroflexus, pre-emergence, 312 h, evaluated after 13 days; for pest or weed control at 15.625 g/ha: 15.625 g ai/ha; for pest or weed control at 15.625 g/ha / pest or weed control at 250 g/ha: read-out: Pigweed, Redroot damage rating (100=total damage to plant; 0=no damage to plant); for pest or weed control at 62.5 g/ha: 62.5 g ai/ha, 100=total damage to plant, 0=no damage to plant, read-out: plant damage rating, Pigweed, Redroot; for pest or weed control at 250 g/ha: 250 g ai/ha
Method in brief: as §1

[6] = test system: velvetleaf (Abutilon theophrasti); test: Test G Pre-Emergence Protocol; conditions: Abutilon theophrasti, pre-emergence, 312 h, evaluated after 13 days; for pest or weed control at 15.625 g/ha: 15.625 g ai/ha; for pest or weed control at 15.625 g/ha / pest or weed control at 250 g/ha: read-out: Velvetleaf damage rating (100=total damage to plant; 0=no damage to plant); for pest or weed control at 62.5 g/ha: 62.5 g ai/ha, 100=total damage to plant, 0=no damage to plant, read-out: plant damage rating, Velvetleaf; for pest or weed control at 250 g/ha: 250 g ai/ha
Method in brief: as §1

[7] = test system: barnyardgrass (Echinochloa crus-galli); test: Test G Post-Emergence Protocol; conditions: Echinochloa crus-galli, post-emergence, 312 h; for pest or weed control at 15.625 g/ha: 15.625 g ai/ha, evaluated after 13 days (100=total damage to plant; 0=no damage to plant), read-out: Barnyardgrass damage rating; for pest or weed control at 62.5 g/ha: 62.5 g ai/ha, read-out: Barnyardgrass damage rating (100=total damage to plant; 0=no damage to plant); for pest or weed control at 62.5 g/ha / pest or weed control at 250 g/ha: evaluated after 13 days; for pest or weed control at 250 g/ha: 250 g ai/ha, read-out: damage to plant, Barnyardgrass (100=total damage to plant; 0=no damage to plant)
Method in brief: (§2)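 Values are percent visual injury at 13 days after treatment (0 none, 100 total). Treatment was a post-emergence spray at 15.625, 62.5 or 250 g/ha on 8-day-old pot plants kept at 24/16 °C.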

corn (Zea mays) [8] = test: Test G Post-Emergence Protocol; conditions: Zea mays, post-emergence, 312 h; for plant injury at 15.625 g/ha: 15.625 g ai/ha, evaluated after 13 days (100=total damage to plant; 0=no damage to plant), read-out: Corn damage rating; for plant injury at 62.5 g/ha: 62.5 g ai/ha, read-out: Corn damage rating (100=total damage to plant; 0=no damage to plant); for plant injury at 62.5 g/ha / plant injury at 250 g/ha: evaluated after 13 days; for plant injury at 250 g/ha: 250 g ai/ha, read-out: damage to plant, Corn (100=total damage to plant; 0=no damage to plant)
Method in brief: as §2

[9] = test system: giant foxtail (Setaria faberi); test: Test G Post-Emergence Protocol; conditions: Setaria faberi, post-emergence, 312 h; for pest or weed control at 15.625 g/ha: 15.625 g ai/ha, evaluated after 13 days (100=total damage to plant; 0=no damage to plant), read-out: Foxtail, Giant damage rating; for pest or weed control at 62.5 g/ha: 62.5 g ai/ha, read-out: Foxtail, Giant damage rating (100=total damage to plant; 0=no damage to plant); for pest or weed control at 62.5 g/ha / pest or weed control at 250 g/ha: evaluated after 13 days; for pest or weed control at 250 g/ha: 250 g ai/ha, read-out: damage to plant, Foxtail, Giant (100=total damage to plant; 0=no damage to plant)
Method in brief: as §2

[10] = test system: ivy-leaved morning glory (Ipomoea hederacea); test: Test G Post-Emergence Protocol; conditions: Ipomoea, post-emergence, 312 h; for pest or weed control at 15.625 g/ha: 15.625 g ai/ha, evaluated after 13 days (100=total damage to plant; 0=no damage to plant), read-out: Morningglory, Ivy-leaved damage rating; for pest or weed control at 62.5 g/ha: 62.5 g ai/ha, read-out: Morningglory, Ivy-leaved damage rating (100=total damage to plant; 0=no damage to plant); for pest or weed control at 62.5 g/ha / pest or weed control at 250 g/ha: evaluated after 13 days; for pest or weed control at 250 g/ha: 250 g ai/ha, read-out: damage to plant, Morningglory, Ivy-leaved (100=total damage to plant; 0=no damage to plant)
Method in brief: as §2

[11] = test system: redroot pigweed (Amaranthus retroflexus); test: Test G Post-Emergence Protocol; conditions: Amaranthus retroflexus, post-emergence, 312 h; for pest or weed control at 15.625 g/ha: 15.625 g ai/ha, evaluated after 13 days (100=total damage to plant; 0=no damage to plant), read-out: Pigweed, Redroot damage rating; for pest or weed control at 62.5 g/ha: 62.5 g ai/ha, read-out: Pigweed, Redroot damage rating (100=total damage to plant; 0=no damage to plant); for pest or weed control at 62.5 g/ha / pest or weed control at 250 g/ha: evaluated after 13 days; for pest or weed control at 250 g/ha: 250 g ai/ha, read-out: damage to plant, Pigweed, Redroot (100=total damage to plant; 0=no damage to plant)
Method in brief: as §2

[12] = test system: velvetleaf (Abutilon theophrasti); test: Test G Post-Emergence Protocol; conditions: Abutilon theophrasti, post-emergence, 312 h; for pest or weed control at 15.625 g/ha: 15.625 g ai/ha, evaluated after 13 days (100=total damage to plant; 0=no damage to plant), read-out: Velvetleaf damage rating; for pest or weed control at 62.5 g/ha: 62.5 g ai/ha, read-out: Velvetleaf damage rating (100=total damage to plant; 0=no damage to plant); for pest or weed control at 62.5 g/ha / pest or weed control at 250 g/ha: evaluated after 13 days; for pest or weed control at 250 g/ha: 250 g ai/ha, read-out: damage to plant, Velvetleaf (100=total damage to plant; 0=no damage to plant)
Method in brief: as §2

| SMILES | pest or weed control at 15.625 g/ha [1] [%] | pest or weed control at 62.5 g/ha [1] [%] | pest or weed control at 250 g/ha [1] [%] | plant injury at 15.625 g/ha (corn (Zea mays) [2]) [%] | plant injury at 62.5 g/ha (corn (Zea mays) [2]) [%] | plant injury at 250 g/ha (corn (Zea mays) [2]) [%] | pest or weed control at 15.625 g/ha [3] [%] | pest or weed control at 62.5 g/ha [3] [%] | pest or weed control at 250 g/ha [3] [%] | pest or weed control at 15.625 g/ha [4] [%] | pest or weed control at 62.5 g/ha [4] [%] | pest or weed control at 250 g/ha [4] [%] | pest or weed control at 15.625 g/ha [5] [%] | pest or weed control at 62.5 g/ha [5] [%] | pest or weed control at 250 g/ha [5] [%] | pest or weed control at 15.625 g/ha [6] [%] | pest or weed control at 62.5 g/ha [6] [%] | pest or weed control at 250 g/ha [6] [%] | pest or weed control at 15.625 g/ha [7] [%] | pest or weed control at 62.5 g/ha [7] [%] | also measured |
| --- | --- | --- | --- | --- | --- | --- | --- | --- | --- | --- | --- | --- | --- | --- | --- | --- | --- | --- | --- | --- | --- |
| CN1C[C@H](c2ccc(F)c(C#N)c2)[C@@H](C(=O)Nc2ccccc2F)C1=O (racemic) [Compound 1468] | 10 | 70 | 80 | 0 | 0 | 0 | 80 | 80 | 90 | 0 | 0 | 0 | 0 | 0 | 0 | 0 | 0 | 0 | 10 | 50 | pest or weed control at 250 g/ha [7]: 40%; plant injury at 15.625 g/ha (corn (Zea mays) [8]): 10%; plant injury at 62.5 g/ha (corn (Zea mays) [8]): 10%; plant injury at 250 g/ha (corn (Zea mays) [8]): 10%; pest or weed control at 15.625 g/ha [9]: 30%; pest or weed control at 62.5 g/ha [9]: 70%; pest or weed control at 250 g/ha [9]: 70%; pest or weed control at 15.625 g/ha [10]: 10%; pest or weed control at 62.5 g/ha [10]: 0%; pest or weed control at 250 g/ha [10]: 10%; pest or weed control at 15.625 g/ha [11]: 10%; pest or weed control at 62.5 g/ha [11]: 0%; pest or weed control at 250 g/ha [11]: 30%; pest or weed control at 15.625 g/ha [12]: 0%; pest or weed control at 62.5 g/ha [12]: 0%; pest or weed control at 250 g/ha [12]: 10% |
| CN1C[C@@H](c2ccc(C(F)(F)F)cc2)[C@H](C(=O)Nc2ccon2)C1=O (racemic) [Compound 1506] | 0 | 0 | 0 | 0 | 0 | 0 | 0 | 0 | 0 | 0 | 0 | 0 | 0 | 0 | 0 | 0 | 0 | 0 | 0 | 0 | pest or weed control at 250 g/ha [7]: 0%; plant injury at 15.625 g/ha (corn (Zea mays) [8]): 0%; plant injury at 62.5 g/ha (corn (Zea mays) [8]): 0%; plant injury at 250 g/ha (corn (Zea mays) [8]): 0%; pest or weed control at 15.625 g/ha [9]: 0%; pest or weed control at 62.5 g/ha [9]: 0%; pest or weed control at 250 g/ha [9]: 0%; pest or weed control at 15.625 g/ha [10]: 0%; pest or weed control at 62.5 g/ha [10]: 0%; pest or weed control at 250 g/ha [10]: 0%; pest or weed control at 15.625 g/ha [11]: 0%; pest or weed control at 62.5 g/ha [11]: 0%; pest or weed control at 250 g/ha [11]: 0%; pest or weed control at 15.625 g/ha [12]: 0%; pest or weed control at 62.5 g/ha [12]: 0%; pest or weed control at 250 g/ha [12]: 0% |
| CN1C[C@@H](c2ccc(C(F)(F)F)cc2)[C@H](C(=O)Nc2cc(C(F)(F)F)no2)C1=O (racemic) [Compound 1511] | 0 | 0 | 0 | 0 | 0 | 0 | 0 | 0 | 0 | 0 | 0 | 0 | 0 | 0 | 0 | 0 | 0 | 0 | 0 | 0 | pest or weed control at 250 g/ha [7]: 0%; plant injury at 15.625 g/ha (corn (Zea mays) [8]): 0%; plant injury at 62.5 g/ha (corn (Zea mays) [8]): 0%; plant injury at 250 g/ha (corn (Zea mays) [8]): 0%; pest or weed control at 15.625 g/ha [9]: 0%; pest or weed control at 62.5 g/ha [9]: 0%; pest or weed control at 250 g/ha [9]: 0%; pest or weed control at 15.625 g/ha [10]: 0%; pest or weed control at 62.5 g/ha [10]: 0%; pest or weed control at 250 g/ha [10]: 0%; pest or weed control at 15.625 g/ha [11]: 0%; pest or weed control at 62.5 g/ha [11]: 0%; pest or weed control at 250 g/ha [11]: 0%; pest or weed control at 15.625 g/ha [12]: 0%; pest or weed control at 62.5 g/ha [12]: 0%; pest or weed control at 250 g/ha [12]: 0% |
